One assay addresses T1, ITK (Homo sapiens, UniProt Q08881).
T1 construct: purchased Promega
T1 sequence (Q08881 1-620): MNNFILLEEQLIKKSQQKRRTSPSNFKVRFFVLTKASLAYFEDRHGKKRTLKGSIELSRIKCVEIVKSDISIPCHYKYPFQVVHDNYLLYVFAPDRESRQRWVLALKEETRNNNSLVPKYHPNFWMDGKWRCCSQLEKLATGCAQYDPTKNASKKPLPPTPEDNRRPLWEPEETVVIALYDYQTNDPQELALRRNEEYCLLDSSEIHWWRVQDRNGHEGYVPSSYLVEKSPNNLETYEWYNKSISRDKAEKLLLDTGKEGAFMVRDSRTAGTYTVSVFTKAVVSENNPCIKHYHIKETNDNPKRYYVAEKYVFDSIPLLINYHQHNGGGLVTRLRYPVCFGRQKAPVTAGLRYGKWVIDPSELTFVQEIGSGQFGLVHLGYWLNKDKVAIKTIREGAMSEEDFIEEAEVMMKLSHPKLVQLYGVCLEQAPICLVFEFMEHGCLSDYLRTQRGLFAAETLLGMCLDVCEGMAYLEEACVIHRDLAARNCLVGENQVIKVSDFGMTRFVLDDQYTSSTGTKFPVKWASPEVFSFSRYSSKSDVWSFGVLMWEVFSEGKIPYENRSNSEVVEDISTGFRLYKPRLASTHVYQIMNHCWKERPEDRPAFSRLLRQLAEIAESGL
Kind of assay: ITK inhibitory activity, ADP-Glo + ITK Kinase enzyme system kit (Promega). The assay is classed as biochemical. Particulars: ITK enzyme 0.4 ng/uL, ATP 25 uM, 15 min preincubation, luminescence, duplicate. How it is done:
(§1) The inhibitory activity against BTK and ITK of the compounds prepared in Examples above were measured as follows.
(§2) The inhibitory activity against ITK was evaluated using ‘ADP-Glo™+ITK Kinase enzyme system’ kit from Promega. […] 5 uL of substrate and 5 uL of ATP prepared at a final concentration of 25 uM were added to all wells of the plate after completion of the reaction, and allowed to react at 30° C. for 1 hour. All wells of the plate after completion of the reaction were treated with 25 uL of ADP-Glo™ reagent and reacted at 30° C. for 40 minutes. Then, 50 uL of the kinase detection buffer was applied to all wells of the plate, and then the light was blocked and reacted at 30° C. for 30 minutes. For the plate for which all reactions were completed, the luminescence was measured and the results were calculated. The evaluation was performed in duplicate. The respective values of negative and positive controls, depending on whether the enzymes were added without treatment of the compound, were determined, and IC50 was calculated based on the values.

For another assay, the target named is T2, BTK (Homo sapiens, UniProt Q06187).
T2 construct: purchased Promega
Kind of assay: BTK inhibitory activity, ADP-Glo + BTK Kinase enzyme system kit (Promega). The assay is classed as biochemical. Particulars: BTK enzyme 1 ng/uL, ATP 10 uM, 15 min preincubation, luminescence, duplicate. How it is done: as §1
as §2, with “against BTK” for “against ITK”, “using ‘ADP-Glo™+BTK” for “using ‘ADP-Glo™+ITK”, “of 10” for “of 25”
In general terms: ADP-Glo first removes unused ATP, then detects ADP through luciferase.

Some results are limits rather than exact numbers.

T2 sequence (Q06187 whole entry): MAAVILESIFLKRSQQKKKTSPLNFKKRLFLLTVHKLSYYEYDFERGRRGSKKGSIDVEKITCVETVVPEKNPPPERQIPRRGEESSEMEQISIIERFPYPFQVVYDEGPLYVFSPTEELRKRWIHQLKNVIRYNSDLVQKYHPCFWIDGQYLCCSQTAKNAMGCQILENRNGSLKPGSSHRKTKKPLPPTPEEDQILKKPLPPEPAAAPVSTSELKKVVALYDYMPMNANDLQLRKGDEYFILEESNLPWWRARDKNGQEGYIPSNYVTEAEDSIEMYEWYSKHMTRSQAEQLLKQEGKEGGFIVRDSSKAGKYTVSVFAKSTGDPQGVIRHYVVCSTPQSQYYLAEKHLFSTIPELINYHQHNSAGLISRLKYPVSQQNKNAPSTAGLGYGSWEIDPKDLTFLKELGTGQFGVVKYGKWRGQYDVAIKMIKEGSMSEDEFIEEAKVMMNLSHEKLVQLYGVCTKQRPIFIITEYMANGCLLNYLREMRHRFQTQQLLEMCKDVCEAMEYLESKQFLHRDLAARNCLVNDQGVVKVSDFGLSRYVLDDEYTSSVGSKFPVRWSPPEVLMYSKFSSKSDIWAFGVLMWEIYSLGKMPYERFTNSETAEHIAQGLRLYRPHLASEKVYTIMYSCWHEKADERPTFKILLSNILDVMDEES

As for `C=CC(=O)N1CCC[C@@H](n2nc(-c3ccc(C(=O)Nc4ccccc4)cc3)c3c(N)ncc(Br)c32)C1` [Example 24, (R)-4-(1-(1-acryloylpiperidin-3-yl)-4-amino-7-bromo-1H-pyrazolo[4,3-c]pyridin-3-yl)-N-phenyl benzamide], the IC50 (as a rule, the concentration at which inhibition is half-maximal) at ITK amounted to 36.8 nM; on BTK, 1.2 nM.

With `C=CC(=O)N1CCC[C@@H](n2nc(-c3ccc(C(=O)Nc4ccccc4)cc3)c3c(N)ncc(I)c32)C1` [Example 25, (R)-4-(1-(1-acryloylpiperidin-3-yl)-4-amino-7-iodo-1H-pyrazolo[4,3-c]pyridin-3-yl)-N-phenyl benzamide], the IC50 on ITK came to 39.5 nM; at BTK it was 1.5 nM.

In the case of `C=CC(=O)N1CCC[C@@H](n2nc(-c3ccc(C(=O)Nc4ccccc4)cc3)c3c(N)ncc(-c4cnn(C)c4)c32)C1` [Example 26, (R)-4-(1-(1-acryloylpiperidin-3-yl)-4-amino-7-(1-methyl-1H-pyrazol-4-yl)-1H-pyrazolo[4,3-c]pyridin-3-yl)-N-phenyl benzamide], the IC50 worked out at 59.3 nM on ITK and 2.7 nM on BTK.

In the case of `C=CC(=O)N1CCC[C@@H](n2nc(-c3ccc(C(=O)Nc4ccccc4)cc3)c3c(N)ncc(CO)c32)C1` [Example 27, (R)-4-(1-(1-acryloylpiperidin-3-yl)-4-amino-7-(hydroxymethyl)-1H-pyrazolo[4,3-c]pyridin-3-yl)-N-phenylbenzamide], the IC50 is over 500 nM on ITK and 8 nM on BTK.

With `C=CC(=O)N1CCC[C@@H](n2nc(-c3ccc(C(=O)Nc4ccccc4)cc3)c3c(N)ncc(-c4cn[nH]c4)c32)C1` [Example 28, (R)-4-(1-(1-acryloylpiperidin-3-yl)-4-amino-7-(1H-pyrazol-4-yl)-1H-pyrazolo[4,3-c]pyridin-3-yl)-N-phenylbenzamide], the results for the IC50 at ITK and at BTK were 181 nM and 4.4 nM, respectively.

With `C=CC(=O)N1CCC[C@@H](n2nc(-c3ccc(C(=O)Nc4ccccc4)cc3)c3c(N)ncc(-c4cc[nH]n4)c32)C1` [Example 29, (R)-4-(1-(1-acryloylpiperidin-3-yl)-4-amino-7-(1H-pyrazol-3-yl)-1H-pyrazolo[4,3-c]pyridin-3-yl)-N-phenylbenzamide], the IC50 at ITK worked out at 556 nM; at BTK, 3.1 nM.

As to `C=CC(=O)N1CCC[C@@H](n2nc(-c3ccc(C(=O)Nc4ccccc4)cc3)c3c(N)ncc(-c4cc[nH]n4)c32)C1` [Example 30, (R)-4-(1-(1-acryloylpiperidin-3-yl)-4-amino-7-(1H-pyrazol-5-yl)-1H-pyrazolo[4,3-c]pyridin-3-yl)-N-phenylbenzamide], the IC50 at ITK was determined as 490 nM; at BTK it was 3 nM.

Turning to `C=CC(=O)N1CCC[C@@H](n2nc(-c3ccc(C(=O)Nc4ccccc4)cc3)c3c(N)ncc(-c4ccsc4)c32)C1` [Example 31, (R)-4-(1-(1-acryloylpiperidin-3-yl)-4-amino-7-(thiophen-3-yl)-1H-pyrazolo[4,3-c]pyridin-3-yl)-N-phenylbenzamide], the figures for the IC50 at ITK and on BTK were 376 nM and 15.9 nM, respectively.

Consider `C=CC(=O)N1CCC[C@@H](n2nc(-c3ccc(C(=O)Nc4ccccc4)cc3)c3c(N)ncc(-c4cnc(C)s4)c32)C1` [Example 32, (R)-4-(1-(1-acryloylpiperidin-3-yl)-4-amino-7-(2-methylthiazol-5-yl)-1H-pyrazolo[4,3-c]pyridin-3-yl)-N-phenylbenzamide], for which the IC50 came out at 200 nM on ITK and 6.2 nM at BTK.

Regarding `C=CC(=O)N1CCC[C@@H](n2nc(-c3ccc(C(=O)Nc4ccccc4)cc3)c3c(N)ncc(-c4cnn(C(F)F)c4)c32)C1` [Example 33, (R)-4-(1-(1-acryloylpiperidin-3-yl)-4-amino-7-(1-(difluoromethyl)-1H-pyrazol-4-yl)-1H-pyrazolo[4,3-c]pyridin-3-yl)-N-phenylbenzamide], the half-maximal inhibitory concentration (IC50) at ITK came to 307 nM; at BTK it was 10.2 nM.

As for `C=CC(=O)N1CCC[C@@H](n2nc(-c3ccc(C(=O)Nc4ccccc4)cc3)c3c(N)ncc(-c4cnn(C5CCOCC5)c4)c32)C1` [Example 34, (R)-4-(1-(1-acryloylpiperidin-3-yl)-4-amino-7-(1-(tetrahydro-2H-pyran-4-yl)-1H-pyrazol-4-yl)-1H-pyrazolo[4,3-c]pyridin-3-yl)-N-phenylbenzamide], the 50% inhibitory concentration (IC50) stood at 293 nM on ITK and 2.3 nM at BTK.

With `C=CC(=O)N1CCC[C@@H](n2nc(-c3ccc(C(=O)Nc4ccccc4)cc3)c3c(N)ncc(-c4cnn(C5CCN(C)CC5)c4)c32)C1` [Example 35, (R)-4-(1-(1-acryloylpiperidin-3-yl)-4-amino-7-(1-(1-methylpiperidin-4-yl)-1H-pyrazol-4-yl)-1H-pyrazolo[4,3-c]pyridin-3-yl)-N-phenylbenzamide], the IC50 at ITK was 61 nM; on BTK, 1.9 nM.

Consider `C=CC(=O)N1CCC[C@@H](n2nc(-c3ccc(C(=O)Nc4ccccc4)cc3)c3c(N)ncc(-c4cnn(CCN(C)C)c4)c32)C1` [Example 36, (R)-4-(1-(1-acryloylpiperidin-3-yl)-4-amino-7-(1-(2-(dimethylamino)ethyl)-1H-pyrazol-4-yl)-1H-pyrazolo[4,3-c]pyridin-3-yl)-N-phenylbenzamide], for which the IC50 stood at 89 nM on ITK and 1.5 nM on BTK.

For the compound `C=CC(=O)N1CCC[C@@H](n2nc(-c3ccc(C(=O)Nc4ccccc4)cc3)c3c(N)ncc(-c4cnn(CCN5CCCC5)c4)c32)C1` [Example 37, (R)-4-(1-(1-acryloylpiperidin-3-yl)-4-amino-7-(1-(2-(pyrrolidin-1-yl)ethyl)-1H-pyrazol-4-yl)-1H-pyrazolo[4,3-c]pyridin-3-yl)-N-phenyl benzamide], the figures for the IC50 on ITK and on BTK were 91.3 nM and 3 nM, respectively.

On to `C=CC(=O)N1CCC[C@@H](n2nc(-c3ccc(C(=O)Nc4ccccc4)cc3)c3c(N)ncc(-c4cnn(CCN5CCOCC5)c4)c32)C1` [Example 38, (R)-4-(1-(1-acryloylpiperidin-3-yl)-4-amino-7-(1-(2-morpholinoethyl)-1H-pyrazol-4-yl)-1H-pyrazolo[4,3-c]pyridin-3-yl)-N-phenyl benzamide], for which the IC50 worked out at 186 nM on ITK and 2.6 nM at BTK.

For the compound `C=CC(=O)N1CCC[C@H](n2nc(-c3ccc(C(=O)Nc4ccccn4)cc3)c3c(N)nccc32)C1` [Example 39, (S)-4-(1-(1-acryloylpiperidin-3-yl)-4-amino-1H-pyrazolo[4,3-c]pyridin-3-yl)-N-(pyridin-2-yl)benzamide], the IC50 at ITK is over 1000 nM; on BTK it was 3.5 nM.

Turning to `C=CC(=O)N1CCC[C@@H](n2nc(-c3ccc(C(=O)Nc4ccccn4)cc3F)c3c(N)nccc32)C1` [Example 40, (R)-4-(1-(1-acryloylpiperidin-3-yl)-4-amino-1H-pyrazolo[4,3-c]pyridin-3-yl)-3-fluoro-N-(pyridin-2-yl)benzamide], the IC50 on ITK came to 6.4 nM; on BTK it was 2.7 nM.

For the compound `C=CC(=O)N1CCC[C@@H](n2nc(-c3ccc(C(=O)Nc4cc(F)ccn4)cc3)c3c(N)nccc32)C1` [Example 41, (R)-4-(1-(1-acryloylpiperidin-3-yl)-4-amino-1H-pyrazolo[4,3-c]pyridin-3-yl)-N-(4-fluoropyridin-2-yl)benzamide], the IC50 on ITK is 10.1 nM; at BTK it was 1.5 nM.

As for `C=CC(=O)N1CCC[C@@H](n2nc(-c3ccc(C(=O)N(C(=O)C=C)c4cc(F)ccn4)cc3)c3c(N)nccc32)C1` [Example 42, (R)—N-acryloyl-4-(1-(1-acryloylpiperidin-3-yl)-4-amino-1H-pyrazolo[4,3-c]pyridin-3-yl)-N-(4-fluoropyridin-2-yl)benzamide], the IC50 stood at 241 nM on ITK and 66.3 nM on BTK.

Consider `C=CC(=O)N1CCC[C@@H](n2nc(-c3ccc(C(=O)Nc4ccccn4)cc3)c3c(N)ncc(Nc4ccccc4)c32)C1` [Example 43, (R)-4-(1-(1-acryloylpiperidin-3-yl)-4-amino-7-(phenylamino)-1H-pyrazolo[4,3-c]pyridin-3-yl)-N-(pyridin-2-yl)benzamide], for which the IC50 is 146 nM on ITK and 2.5 nM at BTK.

The values above are taken from patent US11180496B2 (Daewoong Pharmaceutical Co., Ltd., priority 2017, dated 2021).
